This note sets out measurements from patent publication US11591355B2 (Peloton Therapeutics, Inc., priority 2017, dated 2023).

SMILES strings stand for the structures.

For one test, the target named is T1, Human CD73 (Homo sapiens, UniProt P21589).
T1 construct: purchased R&D Systems; host or cells: CHO cells
T1 sequence (P21589 27-549): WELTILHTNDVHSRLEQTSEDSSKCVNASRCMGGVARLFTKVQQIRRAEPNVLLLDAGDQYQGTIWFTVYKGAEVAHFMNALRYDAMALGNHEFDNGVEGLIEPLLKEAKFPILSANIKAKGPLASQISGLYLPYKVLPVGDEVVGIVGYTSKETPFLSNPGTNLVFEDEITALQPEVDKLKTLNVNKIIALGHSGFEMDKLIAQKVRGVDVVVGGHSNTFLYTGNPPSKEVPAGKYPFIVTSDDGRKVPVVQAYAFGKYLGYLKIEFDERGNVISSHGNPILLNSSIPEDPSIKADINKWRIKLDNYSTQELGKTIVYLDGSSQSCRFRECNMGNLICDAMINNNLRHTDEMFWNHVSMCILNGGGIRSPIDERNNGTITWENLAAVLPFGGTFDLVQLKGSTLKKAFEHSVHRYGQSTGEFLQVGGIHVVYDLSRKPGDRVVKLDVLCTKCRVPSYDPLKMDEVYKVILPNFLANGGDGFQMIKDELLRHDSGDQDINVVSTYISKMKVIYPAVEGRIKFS
In words: CD73 Enzyme Assay. It counts as biochemical. Particulars: 0.25 nM hCD73, 25 μM AMP, kinetic read at 360 nm; read-out: CD73 Enzyme Assay IC50.

The target of test [1] is T2, CD73 on U138 human neuroglioma cells (Homo sapiens, UniProt P21589).
T2 construct: U138 cells were obtained from ATCC and cultured in DMEM with 10% FBS; host or cells: U138 human neuroglioma cells
T2 sequence (P21589 27-549): T1 sequence (P21589 27-549)
In words: CD73 Cell-Based Assay. Particulars: U138 cells, AMP substrate, 2 hours at 37° C., inorganic phosphate by malachite green. In short, it runs like this: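 Whole U138 cells washed free of phosphate were incubated with 200 μM AMP (mixture concentration before equal-volume addition) plus compound in HEPES-buffered saline, pH 7.4, for 2 h at 37 °C, 5% CO2. Adenosine-forming activity read as inorganic phosphate released into supernatant by malachite green.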

One may read the IC50 as the concentration needed to halve the response being measured.

As to `C[C@H](Nc1nc(Cl)nc2c1ccn2[C@@H]1O[C@H](COCP(=O)(O)O)[C@@H](O)[C@H]1O)c1ccc(F)cc1F` [Compound 116, [(2R,3S,4R,5R)-5-[2-chloro-4-[[(1S)-1-(2,4-difluorophenyl)-ethyl]amino]pyrrolo-[2,3-d]pyrimidin-7-yl]-3,4-dihydroxy-tetrahydrofuran-2-yl]methoxymethyl-phosphonic acid], the IC50 (on Human CD73; in test [1]) was below 10 nM each time.
Take `C[C@H](Nc1nc(C#N)nc2c1ccn2[C@@H]1O[C@H](COCP(=O)(O)O)[C@@H](O)[C@H]1O)c1ccc(F)cc1F` [Compound 138, [(2R,3S,4R,5R)-5-[2-cyano-4-[[(1S)-1-(2,4-difluorophenyl)ethyl]-amino]pyrrolo[2,3-d]-pyrimidin-7-yl]-3,4-dihydroxy-tetrahydro-furan-2-yl]methoxy-methylphosphonic acid]: the half-inhibitory concentration (IC50) (at Human CD73; in test [1]) was below 10 nM in each case.
As for `O=P(O)(O)CS(=O)(=O)C[C@H]1O[C@@H](n2ccc3c(NC4CCC4)nc(Cl)nc32)[C@H](O)[C@@H]1O` [Compound 172, [(2S,3S,4R,5R)-5-[2-chloro-4-(cyclobutyl-amino)pyrrolo[2,3-d]-pyrimidin-7-yl]-3,4-dihydroxy-tetrahydro-furan-2-yl]methyl-sulfonylmethylphos-phonic acid], the IC50 (at Human CD73; in test [1]) was below 10 nM in each case.
Turning to `O=P(O)(O)CS(=O)(=O)C[C@H]1O[C@@H](n2ccc3c(N4CCC(F)(F)C4)nc(Cl)nc32)[C@H](O)[C@@H]1O` [Compound 164, [(2S,3S,4R,5R)-5-[2-chloro-4-(3,3-difluoro-pyrrolidin-1-yl)-pyrrolo[2,3-d]-pyrimidin-7-yl]-3,4-dihydroxy-tetrahydro-furan-2-yl]methyl-sulfonylmethylphos-phonic acid], the IC50 (at Human CD73; in test [1]) was below 10 nM each time.
On to `N#Cc1nc(NC2CCC(F)(F)CC2)c2ccn([C@@H]3O[C@H](COCP(=O)(O)O)[C@@H](O)[C@H]3O)c2n1` [Compound 142, [(2R,3S,4R,5R)-5-[2-cyano-4-[(4,4-difluoro-cyclohexyl)amino]-pyrrolo[2,3-d]-pyrimidin-7-yl]-3,4-dihydroxy-tetrahydro-furan-2-yl]methoxy-methylphosphonic acid], for which the IC50 (on Human CD73; in test [1]) was below 10 nM in each case.
Turning to `O=P(O)(O)COC[C@H]1O[C@@H](n2ccc3c(NC4CCCC4)nc(Oc4cccnc4)nc32)[C@H](O)[C@@H]1O` [Compound 248, [(2R,3S,4R,5R)-5-[4-(cyclopentylamino)-2-(3-pyridyloxy)pyrrolo-[2,3-d]pyrimidin-7-yl]-3,4-dihydroxy-tetra-hydrofuran-2-yl]meth-oxymethylphosphonic acid], the IC50 (at Human CD73; in test [1]) was 100 to 1000 nM each time.
In the case of `O=P(O)(O)COC[C@H]1O[C@@H](n2ncc3c(NC4CC(F)(F)C4)nc(Cl)nc32)[C@H](O)[C@@H]1O` [Compound 271, [(2R,3S,4R,5R)-5-[6-chloro-4-[(3,3-difluoro-cyclobutyl)amino]-pyrazolo[3,4-d]-pyrimidin-1-yl]-3,4-dihydroxy-tetrahydro-furan-2-yl]methoxy-methylphosphonic acid], the IC50 (on Human CD73; in test [1]) was below 10 nM in each case.
Consider `C[C@H](O)C#Cc1nc(NC2CCCC2)c2ccn([C@@H]3O[C@H](COCP(=O)(O)O)[C@@H](O)[C@H]3O)c2n1` [Compound 256, [(2R,3S,4R,5R)-5-[4-(cyclopentylamino)-2-[(3S)-3-hydroxybut-1-ynyl]pyrrolo[2,3-d]-pyrimidin-7-yl]-3,4-dihydroxy-tetrahydro-furan-2-yl]methoxy-methylphosphonic acid], for which the IC50 (at Human CD73; in test [1]) was below 10 nM in each case.
Take `O=P(O)(O)COC[C@H]1O[C@@H](c2c[nH]c3c(N4CC5CCCC5C4)nc(Cl)nc23)[C@H](O)[C@@H]1O` (stereo partly drawn) [Compound 285, ((((2R,3S,4R,5S)-5-(2-chloro-4-(hexahydrocyclopenta[c]pyrrol-2 (1H)-yl)-5H-pyrrolo[3,2-d]pyrimidin-7-yl)-3,4-dihydroxytetrahydrofuran-2-yl)methoxy)methyl)phosphonic acid]: the IC50 (on Human CD73; in test [1]) was below 10 nM in each case.
In the case of `COCC#Cc1nc(NC2CCCC2)c2ccn([C@@H]3O[C@H](COCP(=O)(O)O)[C@@H](O)[C@H]3O)c2n1` [Compound 252, [(2R,3S,4R,5R)-5-[4-(cyclopentylamino)-2-(3-methoxyprop-1-ynyl)pyrrolo[2,3-d]-pyrimidin-7-yl]-3,4-dihydroxy-tetrahydro-furan-2-yl]methoxy-methylphosphonic acid], the IC50 (on Human CD73; in test [1]) was below 10 nM each time.
Take `C[C@H](Nc1nc(C#N)nc2c1ccn2[C@@H]1O[C@H](COCP(=O)(O)O)[C@@H](O)[C@H]1O)c1cccc(F)c1` [Compound 75, [(2R,3S,4R,5R)-5-[2-cyano-4-[[(1S)-1-(3-fluorophenyl)ethyl]-amino]pyrrolo[2,3-d]-pyrimidin-7-yl]-3,4-dihydroxy-tetrahydro-furan-2-yl]methoxy-methylphosphonic acid]: the figures for the IC50 (at Human CD73; in test [1]) were below 10 nM and 10 to 100 nM, respectively.
